Earlier results, collected in patent publication EP0553294B1, “THE MANUFACTURE OF COMPOSITIONS FOR THE TREATMENT OF CELL PRO[…]” (AMGEN INC., priority 1990, dated 1992).

System: Kaposi's Sarcoma
Conditions: administered alone; general statement, no test described

Cc1cn([C@H]2C[C@H](N=[N+]=[N-])[C@@H](CO)O2)c(=O)[nH]c1=O [AZT, zidovudine]
effectiveness on Kaposi's Sarcoma: not effective
